In patent publication US9994556B2, “Triazole modified coumarin and biphenyl amide-based HSP90 inhibitors” (THE UNIVERSITY OF KANSAS, priority 2014, dated 2018) one finds IC50 data, which are given here for seven molecules.

Common to all, as to format: cell-based
One test has as its system MCF-7 cells. Briefly: MTS/PMS cell viability assay, MCF-7. The conditions noted are these: Homo sapiens, MCF7, 72 hr, mean ± standard deviation, read-out: IC50 MCF-7. Here is the method:
(§1) a) MTS/PMS Cell Viability Assay (SKBr3 and MCF-7 Cells)
(§2) Cells were maintained in a 1:1 mixture of Advanced DMEM/F12 (Gibco) supplemented with non-essential amino acids, L-glutamine (2 mM), streptomycin (500 μg/mL), penicillin (100 units/mL), and 10% FBS. Cells were grown to confluence in a humidified atmosphere (37° C., 5% CO2), seeded (2000/well, 100 μL) in 96-well plates, and allowed to attach overnight. Compound at varying concentrations in DMSO (1% DMSO final concentration) was added, and cells were returned to the incubator for 72 hr. At 72 hr, the number of viable cells was determined using an MTS/PMS cell proliferation kit (Promega) per the manufacturer's instructions. Cells incubated in 1% DMSO were used at 100% proliferation, and values were adjusted accordingly. IC50 values were calculated from separate experiments performed in triplicate using GraphPad Prism.

The test system of the next test is JMAR cell line. In words: Promega CellTiter-Glo (CTG) luminescent assay, JMAR. The conditions noted are these: 72 hr, mean ± standard deviation. On the procedure:
(§3) b) Promega CellTiter-Glo (CTG) Luminescent Assay
(§4) Antiproliferative activities against MDA-MB-468LN, MDA1986 and JMAR cell lines were performed with 384-well white plates with the Promega CellTiter-Glo (CTG) luminescent assay with 72 hr compound treatment. Data analysis was performed using GraphPad Prism. Selected data were further checked with MTS/PMS cell viability assay with 96-well plates, which correlated well with Promega CellTiter-Glo luminescent assay.

Another test has as its system PC3-MM2 cells. In words: Sulforhodamine B assay, PC3-MM2. The conditions noted are these: Homo sapiens, PC3MM2, mean ± standard deviation. On the procedure:
(§5) c) Sulforhodamine B Assay
(§6) The sulforhodamine B assay is used to measure drug-induced cytotoxicity and cell proliferation for large-scale drug-screening applications. Its principle is based on the ability of the protein dye sulforhodamine B to bind electrostatically on pH dependent protein basic amino acid residues of trichloroacetic acid-fixed cells. The aim is to evaluate samples showing selective growth inhibition or cell killing of particular tumor cell lines.
(§7) The SRB assay is performed by treating cells using a 10 point dose-response curve. The cells are fixed with trichloroacetic acid solution and stained with sulforhodamine B dye. The stained cells are then solubilized with 10 mM Tris buffer and read for absorbance at 565 nm.
(§8) Percentage growth is calculated at each of the drug concentration levels using the absorbance raw data.
(§9) Percentage growth inhibition is calculated as: [(Ti−Tz)/(C−Tz)]×100 for concentrations for which Ti≥Tz. [(Ti−Tz)/(Tz)]×100 for concentrations for which Ti<Tz.
(§10) Ti=Absorbance of wells at a given drug concentration level.
(§11) Tz=Absorbance time zero wells
(§12) C=Absorbance of untreated wells (media and cells only)
(§13) After growth inhibition values have been calculated, the data is plotted on Graphpad Prism software. Data is entered and plotted on a sigmoidal dose-response curve using non-linear regression.
(Sulforhodamine B stains cellular protein and so reports cell mass.)

The subject of the next test is MDA-MB-468LN cell line. In words: Promega CellTiter-Glo (CTG) luminescent assay, MDA-MB-468LN. As to conditions: Homo sapiens, 72 hr, mean ± standard deviation. On the procedure: as §3, §4
(Cellular ATP, detected with luciferase, serves as a proxy for viable cell number.)

Another test has as its system LNCaP cells. Briefly: Sulforhodamine B assay, LNCaP. As to conditions: Homo sapiens, mean ± standard deviation. On the procedure:
as §5, §6, §7, §8, §9, §10, §11, §12, §13

The subject of another test is SKBr3 cells. Briefly: MTS/PMS cell viability assay, SKBr3. As to conditions: Homo sapiens, SK-BR-3, 72 hr, mean ± standard deviation, read-out: IC50 SKBr3. On the procedure:
as §1, §2

In the next test the test system is MDA1986 cell line. Briefly: Promega CellTiter-Glo (CTG) luminescent assay, MDA1986. As to conditions: 72 hr, mean ± standard deviation, read-out: IC50 MDA1986. Here is the method:
as §3, §4

[1] abbreviates: Table 2 biphenyl triazole analogues.
Setting [2] is: Table 1 coumarin-based triazoles.
[3] abbreviates: Table 1 coumarin-based triazoles, at least two experiments in triplicate.

Where two headings read alike, the source gives them in different places.

As usually defined, the IC50 is the concentration at which inhibition is half-maximal. `CN1CCC(Oc2ccc(-c3ccc(NC(=O)c4cn(Cc5ccc([N+](=O)[O-])cc5)nn4)cc3)cc2)CC1` [5i, 1-(4-Nitrobenzyl)-N-(4′-((1-methylpiperidin-4-yl)oxy)-[1,1′-biphenyl]-4-yl)-1H-1,2,3-triazole-4-carboxamide]: the IC50 with MCF-7 cells (setting [1]) was determined as 0.55 ± 0.01 µM; with JMAR cell line (setting [1]) it was 0.21 ± 0.35 µM; in the test with PC3-MM2 cells (setting [1]), 1.03 ± 0.16 µM; with MDA-MB-468LN cell line (setting [1]), 0.56 ± 0.25 µM; in the test with LNCaP cells (setting [1]), 0.6 ± 0.34 µM; in the test on SKBr3 cells (setting [1]) it was 0.45 ± 0.04 µM. The IC50 in the test on MDA1986 cell line (setting [1]) worked out at 0.19 ± 0.17 µM.

As to `Cc1c(OC2CCN(C)CC2)ccc2cc(NC(=O)c3cn(Cc4ccc(C(C)(C)C)cc4)nn3)c(=O)oc12` [4k, 1-(4-tert-Butylbenzyl)-N-(8-methyl-7-((1-methylpiperidin-4-yl)oxy)-2-oxo-2H-chromen-3-yl)-1H-1,2,3-triazole-4-carboxamide], the half-maximal inhibitory concentration (IC50) in the test on MCF-7 cells (setting [2]) is 1.22 ± 0.07 µM; in the test with JMAR cell line (setting [2]) it was 0.58 ± 0.14 µM; with PC3-MM2 cells (setting [2]) it was 2.37 µM; in the test with MDA-MB-468LN cell line (setting [2]), 0.74 ± 0.22 µM; in the test with LNCaP cells (setting [2]) it was 1.84 µM; in the test on SKBr3 cells (setting [3]) it was 0.45 ± 0.03 µM. In addition, in the test on MDA1986 cell line (setting [2]), the 50% inhibitory concentration (IC50) is 0.34 ± 0.09 µM.

For `COc1cccc(Cn2cc(C(=O)Nc3ccc(-c4ccc(OC5CCN(C)CC5)cc4)cc3)nn2)c1` [5l, 1-(3-Methoxybenzyl)-N-(4′-((1-methylpiperidin-4-yl)oxy)-[1,1′-biphenyl]-4-yl)-1H-1,2,3-triazole-4-carboxamide], the IC50 in the test with MCF-7 cells (setting [1]) is 0.16 ± 0.02 µM; in the test on JMAR cell line (setting [1]), 0.21 ± 0.12 µM; in the test with PC3-MM2 cells (setting [1]), 0.55 ± 0.37 µM; with MDA-MB-468LN cell line (setting [1]) it was 0.19 ± 0.05 µM; in the test on LNCaP cells (setting [1]), 0.16 µM; with SKBr3 cells (setting [1]) it was 0.32 ± 0.02 µM. For the same molecule, the IC50 with MDA1986 cell line (setting [1]) came to 0.28 ± 0.09 µM.

For `Cc1c(OC2CCN(C)CC2)ccc2cc(NC(=O)c3cn(Cc4cccc(Cl)c4)nn3)c(=O)oc12` [4n, 1-(3-Chlorobenzyl)-N-(8-methyl-7-((1-methylpiperidin-4-yl)oxy)-2-oxo-2H-chromen-3-yl)-1H-1,2,3-triazole-4-carboxamide], the IC50 in the test with MCF-7 cells (setting [2]) was 1.68 ± 0.01 µM; in the test on JMAR cell line (setting [2]) it was 0.19 ± 0.1 µM; in the test with PC3-MM2 cells (setting [2]), 6 ± 1.13 µM; in the test on MDA-MB-468LN cell line (setting [2]) it was 1.14 ± 1.17 µM; with LNCaP cells (setting [2]), 3.03 ± 0.05 µM; with SKBr3 cells (setting [3]), 1.06 ± 0.01 µM. The IC50 with MDA1986 cell line (setting [2]) came to 0.23 ± 0.22 µM.

For `Cc1ccc(Cn2cc(C(=O)Nc3cc4ccc(OC5CCN(C)CC5)c(C)c4oc3=O)nn2)cc1` [4i, 1-(4-Methylbenzyl)-N-(8-methyl-7-((1-methylpiperidin-4-yl)oxy)-2-oxo-2H-chromen-3-yl)-1H-1,2,3-triazole-4-carboxamide], the half-maximal inhibitory concentration (IC50) in the test with MCF-7 cells (setting [2]) worked out at 1.5 ± 0.19 µM; with JMAR cell line (setting [2]), 1.8 ± 0.95 µM; in the test on PC3-MM2 cells (setting [2]), 7.32 ± 5.44 µM; in the test with MDA-MB-468LN cell line (setting [2]), 2.4 ± 0.25 µM; in the test with LNCaP cells (setting [2]) it was 7.24 ± 1.02 µM; with SKBr3 cells (setting [3]) it was 1.21 ± 0.07 µM. The half-maximal inhibitory concentration (IC50) in the test on MDA1986 cell line (setting [2]) came to 1.5 ± 0.2 µM.

With `CN1CCC(Oc2ccc(-c3ccc(NC(=O)c4cn(Cc5ccc(F)cc5)nn4)cc3)cc2)CC1` [5j, 1-(4-Fluorobenzyl)-N-(4′-((1-methylpiperidin-4-yl)oxy)-[1,1′-biphenyl]-4-yl)-1H-1,2,3-triazole-4-carboxamide], the concentration for half-maximal inhibition (IC50) in the test with MCF-7 cells (setting [1]) turned out to be 1.04 ± 0.08 µM; with JMAR cell line (setting [1]), 1.39 ± 0.52 µM; in the test on PC3-MM2 cells (setting [1]), 2.81 ± 1.82 µM; in the test on MDA-MB-468LN cell line (setting [1]), 1.09 ± 0.23 µM; with LNCaP cells (setting [1]) it was 1.64 ± 0.97 µM; in the test with SKBr3 cells (setting [1]) it was 0.72 ± 0.18 µM. The IC50 in the test with MDA1986 cell line (setting [1]) came out at 0.93 ± 0.34 µM.

On to `Cc1c(OC2CCN(C)CC2)ccc2cc(NC(=O)c3cn(CCCc4ccccc4)nn3)c(=O)oc12` [4s, N-(8-methyl-7-((1-methylpiperidin-4-yl)oxy)-2-oxo-2H-chromen-3-yl)-1-(3-phenylpropyl)-1H-1,2,3-triazole-4-carboxamide], for which the IC50 in the test with MCF-7 cells (setting [2]) stood at 1.65 ± 0.03 µM; in the test on SKBr3 cells (setting [3]), 1.73 ± 0.05 µM.
